Measurements as given in patent US20060110407A1 (priority 2001, published 2006).

Legend:
[1] = system: camelpox, cowpox, monkeypox, and vaccinia viruses; settings: cited from earlier work
Vaccinia strain IHD-J = system: Vaccinia strain IHD-J; design: species or system Balb/c mice; settings: mouse, in vivo

SMILES | effectiveness in treating Orthopoxvirus infections [1] | Mean (number of pocks per tail) (Vaccinia strain IHD-J) | Mean difference compared to negative control (Saline) (Vaccinia strain IHD-J)
Nc1ccn(C[C@@H](CO)OCP(=O)(O)O)c(=O)n1 [Cidofovir ™, Cidofovir] | effective | 24.2 | −17.7
CC(=O)OCC(CCn1cnc2cnc(N)nc21)COC(C)=O [famciclovir] | effective | – | –
COc1c(C)c2c(c(O)c1C/C=C(\C)CCC(=O)O)C(=O)OC2 [mycophenolic acid] | effective | – | –
Nc1nc2c(ncn2CCC(CO)CO)c(=O)[nH]1 [penciclovir] | effective | – | –
NC(=O)c1ncn([C@@H]2O[C@H](CO)[C@@H](O)[C@H]2O)n1 [ribavirin] | effective | – | –
